How the values were obtained:
[1] = molecular target: T1, native Renilla Luciferase (RLuc) (Renilla reniformis, UniProt P27652); test: Bioluminescence intensity, Renilla Luciferase luminescence system; assay type: biochemical; details: 2 μM substrate in PBS pH 7.4, cell lysate, maximum intensity over 1 second, relative value
T1 construct: expressed in transfected cells; host or cells: COST cells (so in the source)
T1 sequence (P27652 1-311): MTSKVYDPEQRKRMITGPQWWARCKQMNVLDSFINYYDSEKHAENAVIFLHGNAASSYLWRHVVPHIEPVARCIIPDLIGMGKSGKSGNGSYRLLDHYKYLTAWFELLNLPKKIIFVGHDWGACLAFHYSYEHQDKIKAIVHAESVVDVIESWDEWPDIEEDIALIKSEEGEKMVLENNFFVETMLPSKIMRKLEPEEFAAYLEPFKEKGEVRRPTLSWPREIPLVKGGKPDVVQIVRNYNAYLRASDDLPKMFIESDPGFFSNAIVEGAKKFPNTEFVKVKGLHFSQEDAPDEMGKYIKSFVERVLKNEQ
Description: The luciferases were respectively expressed in COST cells using an expression vector (pcDNA3.1(+), commercially available from Invitrogen) comprising the sequence encoding native Renilla Luciferase (RLuc) (trade name pGL4.75, commercially available from Promega) or an expression vector (trade name pcDNA3.1(+), commercially available from Invitrogen) comprising the sequence encoding a RLuc derivative RLuc8 or RLuc8.6-535 (Reference: Loening, A. M. et al., Nat. Methods, 2007, 4, 641-643.). The cells were lysed using a Renilla Luciferase Lysis Buffer (E291A, Promega), and the lysate was directly used as an enzyme solution. […] Bioluminescence was measured according to the protocol of Renilla Luciferase Assay System (Cat. No. E 2810; Promega). The luminescent substrate was dissolved in methanol to prepare a 2 mM solution. The solution was diluted to 2 μM with PBS buffer (pH 7.4), and the diluted solution was used as a substrate solution. […] The luminescence intensity was measured with a Berthold Lumat LB 9507 for 1 second, and indicated by the maximum luminescence intensity (I). The luminescence intensity of the native CTZ by RLuc8 was set to be 1.0, and the other bioluminescence intensities were normalized to be relative values to that of native CTZ.

RLuc8 [2] = molecular target: T2, RLuc8 (Renilla reniformis, UniProt P27652, A143M/A55T/C124A/K136R/M185V/M253L/S130A/S287L); assay type: biochemical; details: 2 μM substrate in PBS pH 7.4, cell lysate, maximum intensity over 1 second, relative value
T2 construct: expressed in transfected cells; host or cells: COST cells (so in the source)
Description: (§1) The luciferases were respectively expressed in COST cells using an expression vector (pcDNA3.1(+), commercially available from Invitrogen) comprising the sequence encoding native Renilla Luciferase (RLuc) (trade name pGL4.75, commercially available from Promega) or an expression vector (trade name pcDNA3.1(+), commercially available from Invitrogen) comprising the sequence encoding a RLuc derivative RLuc8 or RLuc8.6-535 (Reference: Loening, A. M. et al., Nat. Methods, 2007, 4, 641-643.). The cells were lysed using a Renilla Luciferase Lysis Buffer (E291A, Promega), and the lysate was directly used as an enzyme solution. […] Bioluminescence was measured according to the protocol of Renilla Luciferase Assay System (Cat. No. E 2810; Promega). The luminescent substrate was dissolved in methanol to prepare a 2 mM solution. The solution was diluted to 2 μM with PBS buffer (pH 7.4), and the diluted solution was used as a substrate solution. To 200 μL of the substrate solution, 4 μL of the cell lysate containing RLuc, RLuc 8 or RLuc8.6-535 was added to start the luminescent reaction. The luminescence intensity was measured with a Berthold Lumat LB 9507 for 1 second, and indicated by the maximum luminescence intensity (I). The luminescence intensity of the native CTZ by RLuc8 was set to be 1.0, and the other bioluminescence intensities were normalized to be relative values to that of native CTZ.

RLuc8 [3] = molecular target: T2, RLuc8; assay type: biochemical; details: bioluminescence spectrum, ATTO LumiFL
Procedure: (§2) As in the method for measuring bioluminescence intensity described above, luminescence spectrum was measured according to the protocol of Renilla Luciferase Assay System (Cat. No. E 2810; Promega). The luminescence spectrum was measured using ATTO LumiFL. The maximum luminescence intensities were normalized to be relative values to 1.0 upon determination of the maximum luminescence wavelength.

RLuc8.6-535 [4] = molecular target: T3, RLuc8.6-535 (Renilla reniformis, UniProt P27652, A123S/A143M/A55T/C124A/D154M/D162E/E155G/I163L/K136R/M185L/M253L/S130A/S287L); assay type: biochemical; parameters: expressed in transfected cells; host or cells: COST cells (so in the source); details: for RLuc8.6-535 luminescence intensity (%): 2 μM substrate in PBS pH 7.4, cell lysate, maximum intensity over 1 second, relative value
Description: as §1

RLuc8.6-535 [5] = molecular target: T3, RLuc8.6-535; assay type: biochemical; parameters: expressed in transfected cells; host or cells: COST cells (so in the source); details: bioluminescence spectrum, ATTO LumiFL
Procedure: as §2

ALuc24 = test: Bioluminescence intensity, ALuc system test; assay type: biochemical; details: 1 μM substrate, relative to nCTZ/ALuc34
ALuc30 = test: Bioluminescence intensity, ALuc system test; assay type: biochemical; details: 1 μM substrate, relative to nCTZ/ALuc34
ALuc16 = test: Bioluminescence intensity, ALuc system test; assay type: biochemical; details: 1 μM substrate, relative to nCTZ/ALuc34
Procedure: (§3) The cells were lysed using a Renilla Luciferase Buffer (E291A; Promega), and the lysate was directly used as an enzyme solution. As luminescent substrates, native CTZ (Nanolight technology) and 6-Al2N3-CTZ (Example 17) were used. Bioluminescence was measured according to the protocol of a Renilla Luciferase Assay System (Cat. No. E2810; Promega). The luminescent substrate was dissolved in methanol to prepare a 1 mM solution. The solution was diluted to 1 μM with Promega buffer, and the diluted solution was used as a substrate solution. To 40 μL of the substrate solution, 10 μL of the cell lysate containing RLuc8.6-535, ALuc16, ALuc22, ALuc23 or ALuc34 was added for starting the luminescent reaction. Using Fujifilm LAS-4000, the luminescence intensities were measured 0 and 20 minutes after the start of the enzyme reaction. Further, from the results of bioluminescence intensity shown in FIG. 3, the bioluminescence intensities were summarized in Tables 4-1 and 4-2 below, where the luminescence intensities were normalized to be the relative values of nCTZ/ALuc34 (100%).

ALuc22 = test: Bioluminescence intensity, ALuc system test; assay type: biochemical; details: 1 μM substrate, relative to nCTZ/ALuc34
Procedure: as §3

ALuc23 = test: Bioluminescence intensity, ALuc system test; assay type: biochemical; details: 1 μM substrate, relative to nCTZ/ALuc34
Procedure: as §3

ALuc34 = test: Bioluminescence intensity, ALuc system test; assay type: biochemical; details: for luminescence intensity (%): 1 μM substrate, relative to nCTZ/ALuc34
Procedure: as §3

RLuc8.6-535 [6] = molecular target: T3, RLuc8.6-535; test: Bioluminescence intensity, ALuc system test; assay type: biochemical; parameters: expressed in transfected cells; details: 1 μM substrate, relative to nCTZ/ALuc34
Procedure: as §3

NanoLuc = molecular target: T4, NanoLuc (Oplophorus gracilirostris, UniProt Q9GV45, A31E/A60N/A81I/F95D/I117V/K70R/L54V/L99Q/M102K/N193R/P142E/Q151K/Q38R/Q45L/V71I/Y165I); details: combined with NanoLuc; cited from earlier work
T4 construct: literature Promega

GLuc = test: Bioluminescence intensity, ALuc system test; assay type: biochemical; details: 0 minutes after the start of measurement, 1 μM substrate, relative to nCTZ/ALuc34
[7] = molecular target: T5, Renilla Luciferase (RLuc) (Renilla reniformis, UniProt P27652); details: CTZ as luminescent substrate; cited from earlier work
T5 sequence (P27652 1-311): T1 sequence (P27652 1-311)

[8] = system: artificial bioluminescent enzyme (ALuc); details: same wavelength range (480-500 nm); cited from earlier work
[9] = ALuc24, 0 minutes after the start of measurement
[10] = ALuc24, 20 minutes after the start of measurement
[11] = ALuc30, 0 minutes after the start of measurement
[12] = ALuc30, 20 minutes after the start of measurement
[13] = ALuc16, 0 minutes after the start of measurement
[14] = ALuc16, 20 minutes after the start of measurement
[15] = ALuc22, 0 minutes after the start of measurement
[16] = ALuc22, 20 minutes after the start of measurement
[17] = ALuc23, 0 minutes after the start of measurement
[18] = ALuc23, 20 minutes after the start of measurement
[19] = ALuc34, 0 minutes after the start of measurement
[20] = ALuc34, 20 minutes after the start of measurement
[21] = RLuc8.6-535, 0 minutes after the start of measurement

T3 sequence (P27652 whole entry A55T/A123S/C124A/S130A/K136R/A143M/D154M/E155G/D162E/I163L/M185L/M253L/S287L): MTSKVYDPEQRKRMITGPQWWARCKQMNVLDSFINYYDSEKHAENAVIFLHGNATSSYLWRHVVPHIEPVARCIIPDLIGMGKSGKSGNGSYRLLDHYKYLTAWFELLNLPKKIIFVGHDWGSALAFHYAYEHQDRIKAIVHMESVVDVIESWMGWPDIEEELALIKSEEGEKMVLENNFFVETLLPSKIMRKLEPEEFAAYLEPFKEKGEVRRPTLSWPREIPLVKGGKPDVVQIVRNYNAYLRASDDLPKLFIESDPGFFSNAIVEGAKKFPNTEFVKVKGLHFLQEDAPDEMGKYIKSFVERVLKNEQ
T2 sequence (P27652 whole entry A55T/C124A/S130A/K136R/A143M/M185V/M253L/S287L): as the sequence (P27652 whole entry A55T/A123S/C124A/S130A/K136R/A143M/D154M/E155G/D162E/I163L/M185L/M253L/S287L) above, with S123A, M154D, G155E, E162D, L163I, L185V counted along it
T4 sequence (Q9GV45 28-196 with tags or gaps with the stated changes limits assumed): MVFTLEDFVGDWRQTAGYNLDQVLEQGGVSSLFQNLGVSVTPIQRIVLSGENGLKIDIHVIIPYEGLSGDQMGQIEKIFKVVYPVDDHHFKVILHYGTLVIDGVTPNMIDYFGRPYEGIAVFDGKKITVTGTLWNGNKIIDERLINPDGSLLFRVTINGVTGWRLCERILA

Structure (SMILES)	RLuc luminescence intensity (%) [1] [%]	RLuc8 luminescence intensity (%) (RLuc8 [2])	RLuc8 half-width (nm) (RLuc8 [3])	RLuc8 maximum luminescence wavelength (nm) (RLuc8 [3])	RLuc8.6-535 luminescence intensity (%) (RLuc8.6-535 [4])	RLuc8.6-535 half-width (nm) (RLuc8.6-535 [5])	RLuc8.6-535 maximum luminescence wavelength (nm) (RLuc8.6-535 [5])	luminescence intensity (%) (ALuc24; [9])	luminescence intensity (%) (ALuc24; [10])	luminescence intensity (%) (ALuc30; [11])	luminescence intensity (%) (ALuc30; [12])	luminescence intensity (%) (ALuc16; [13])	luminescence intensity (%) (ALuc16; [14])	luminescence intensity (%) (ALuc22; [15])	luminescence intensity (%) (ALuc22; [16])	luminescence intensity (%) (ALuc23; [17])	luminescence intensity (%) (ALuc23; [18])	luminescence intensity (%) (ALuc34; [19])	luminescence intensity (%) (ALuc34; [20])	luminescence intensity (%) (RLuc8.6-535 [6]; [21])	other results
O=c1c(Cc2ccc(O)cc2)nc2c(Cc3ccccc3)[nH]c(-c3ccc(OCCCO)cc3)cn1-2 [6-Alkyl3OH-CTZ]	0.11	9.74	[60] nm	414	75.3	[56] nm	415	–	–	–	–	–	–	–	–	–	–	–	–	–	luminescence intensity higher than that of DeepBlueC/RLuc8 (RLuc8.6-535 [4]; with RLuc8.6-535, versus conventional blue-shifted RLuc luminescence system (DeepBlueC/RLuc8)): 32 fold
[N-]=[N+]=NCCOc1ccc(-c2cn3c(=O)c(Cc4ccc(O)cc4)nc-3c(Cc3ccccc3)[nH]2)cc1 [Example 6-Al2N3-CTZ]	–	–	–	–	–	–	–	0.56	0.17	0.83	0.28	1.72	0.60	1.32	0.46	2.53	1.00	3.45	1.27	0.01	luminescence intensity higher than that of native CTZ/ALuc34 (ALuc34; with ALuc34, immediately after the start of the measurement): about 3.4 fold
O=c1c(Cc2ccco2)nc2c(Cc3ccccc3)[nH]c(-c3ccccc3)cn1-2 [Furimazine]	–	–	–	–	–	–	–	–	–	–	–	–	–	–	–	–	–	–	–	–	luminescence intensity higher than that of the firefly luciferase luminescence system (NanoLuc): about 100 fold
Oc1ccc(Cc2nc3c(Cc4ccccc4)nc(-c4ccc(O)cc4)cn3c2O)cc1 [Native-CTZ, coelenterazine]	10.7	80.5	[98] nm	484	100	[111] nm	538	0.40	0.31	0.28	0.21	0.43	0.42	0.65	0.42	0.58	0.58	1.0	1	0.05	luminescence intensity (%) (GLuc): 0.08%; quantum yield of the RLuc luminescence system [7]: 0.05; luminescence intensity higher than that of the conventional RLuc luminescence system [8]: about 50 fold; luminescence intensity (%) (RLuc8.6-535 [6]; RLuc8.6-535, 20 minutes after the start of measurement): 0.05%
